{"source": "patent US9700049B2", "about": "“Anthranilamides in combination with fungicides” (BAYER INTELLECTUAL PROPERTY GMBH, priority 2010, dated 2017)", "key": {"[1]": {"tested_on": "green peach aphid (Myzus persicae)", "experiment": "Myzus persicae test (spray on infested cabbage leaves)", "format": "in vivo", "conditions": "100 g/ha, applied individually"}, "[2]": {"tested_on": "larvae of the mustard beetle (Phaedon cochleariae)", "experiment": "Phaedon cochleariae larvae test", "conditions": "for pest or weed control at 100 g/ha: Phaedon cochleariae, 120 h, read-out: Kill in % after 5d"}, "[3]": {"tested_on": "cotton aphid (Aphis gossypii)", "experiment": "Aphis gossypii test", "format": "in vivo", "conditions": "500 ppm, applied individually", "description": "The kill rates determined a.re entered into Colby's formula."}, "[4]": {"tested_on": "green peach aphid (Myzus persicae)", "experiment": "Myzus persicae test (run-off application)", "format": "in vivo", "conditions": "500 ppm, applied individually", "description": "Myzus persicae Test (Run-Off Application)"}, "[5]": {"tested_on": "larvae of the armyworm (Spodoptera frugiperda)", "experiment": "Spodoptera frugiperda larvae test", "format": "in vivo", "conditions": "applied individually; for Kill in % after 2d: 100 g/ha", "procedure": "Spodoptera frugiperda Larvae Test\nCabbage leaves (Brassica oleracea) are treated by being sprayed with wits the preparation of active compound of the desired concentration and are populated with larvae of the armyworm (Spodoptera frugiperda) while the leaves are still moist."}}, "data": [{"molecule": "CNC(=O)/C(=N/OC)c1ccccc1Oc1ccccc1", "note": "[metominostrobin]", "values": [{"measurement": "Kill in % after 1d", "setting": "[1]", "result": 0, "unit": "%"}]}, {"molecule": "CC(C)(C)C(O)(CCc1ccc(Cl)cc1)Cn1cncn1", "note": "(centres unmarked) [tebuconazole]", "values": [{"measurement": "pest or weed control at 100 g/ha", "setting": "[2]", "result": 0, "unit": "%"}, {"measurement": "Kill in % after 5d", "setting": "[1]", "result": 0, "unit": "%"}]}, {"molecule": "Cn1c(=O)c2sc3c(=O)n(C)c(=O)c3sc2c1=O", "note": "[2,6-DIMETHYL-1H,5H-[1,4]DITHIINO[2,3-C:5,6-C′]DIPYRROLE-1,3,5,7(2H,6H)-TETRONE]", "values": [{"measurement": "Kill in % after 1d", "setting": "[3]; after 1 d", "result": 0, "unit": "%"}, {"measurement": "Kill in % after 3 d", "setting": "[3]; after 3 d", "result": 0, "unit": "%"}, {"measurement": "Kill in % after 1d", "setting": "[4]", "result": 0, "unit": "%"}]}, {"molecule": "COCC(=O)N(c1c(C)cccc1C)C(C)C(=O)OC", "note": "(centres unmarked) [metalaxyl]", "values": [{"measurement": "pest or weed control at 100 g/ha", "setting": "[2]", "result": 0, "unit": "%"}]}, {"molecule": "N#Cc1c[nH]cc1-c1cccc2c1OC(F)(F)O2", "note": "[fludioxonil]", "values": [{"measurement": "pest or weed control at 100 g/ha", "setting": "[2]", "result": 0, "unit": "%"}]}, {"molecule": "fosetyl-aluminium", "values": [{"measurement": "Kill in % after 6d", "setting": "[5]; 500 g/ha, after 6 d", "result": 0, "unit": "%"}]}, {"molecule": "O=[n+]1[n-]c(-n2ccnc2)nc2ccc(Cl)cc21", "note": "[triazoxide]", "values": [{"measurement": "pest or weed control at 100 g/ha", "setting": "[2]", "result": 0, "unit": "%"}]}, {"molecule": "mancozeb", "values": [{"measurement": "Kill in % after 5d", "setting": "[2]; 100 g/ha, applied individually", "result": 0, "unit": "%"}, {"measurement": "Kill in % after 1d", "setting": "[1]", "result": 0, "unit": "%"}]}, {"molecule": "C=CCOC(Cn1ccnc1)c1ccc(Cl)cc1Cl", "note": "(centres unmarked) [imazalil]", "values": [{"measurement": "Kill in % after 2d", "setting": "[5]", "result": 0, "unit": "%"}, {"measurement": "pest or weed control at 100 g/ha", "setting": "[2]", "result": 0, "unit": "%"}]}, {"molecule": "CCC1(C(=O)N[C@H](C)c2ccc(Cl)cc2)C(C)C1(Cl)Cl", "note": "(some centres unmarked) [carpropamid]", "values": [{"measurement": "pest or weed control at 100 g/ha", "setting": "[2]", "result": 0, "unit": "%"}]}, {"molecule": "O=C(Nc1ccccc1)N(Cc1ccc(Cl)cc1)C1CCCC1", "note": "[pencycuron]", "values": [{"measurement": "pest or weed control at 100 g/ha", "setting": "[2]", "result": 0, "unit": "%"}]}, {"molecule": "O=c1c2cc(F)ccc2nc(-n2cncn2)n1-c1ccc(Cl)cc1Cl", "note": "[fluquinconazole]", "values": [{"measurement": "pest or weed control at 100 g/ha", "setting": "[2]", "result": 0, "unit": "%"}]}, {"molecule": "CC(C)C1CCC(Cc2ccc(Cl)cc2)C1(O)Cn1cncn1", "note": "(centres unmarked) [ipconazole]", "values": [{"measurement": "pest or weed control at 100 g/ha", "setting": "[2]", "result": 0, "unit": "%"}, {"measurement": "Kill in % after 1d", "setting": "[1]", "result": 0, "unit": "%"}]}, {"molecule": "COCC(=O)N(c1c(C)cccc1C)[C@H](C)C(=O)OC", "note": "[mefenoxam]", "values": [{"measurement": "Kill in % after 5d", "setting": "[2]; 100 g/ha, applied individually", "result": 0, "unit": "%"}, {"measurement": "Kill in % after 1d", "setting": "[1]", "result": 0, "unit": "%"}]}, {"molecule": "O=C(Nc1ccccc1-c1ccc(Cl)cc1)c1cccnc1Cl", "note": "[boscalid]", "values": [{"measurement": "pest or weed control at 100 g/ha", "setting": "[2]", "result": 0, "unit": "%"}]}, {"molecule": "CC(C)(C)C(O)C(Oc1ccc(Cl)cc1)n1cncn1", "note": "(centres unmarked) [triadimenol]", "values": [{"measurement": "pest or weed control at 100 g/ha", "setting": "[2]", "result": 0, "unit": "%"}]}, {"molecule": "CC(C)Oc1cccc(NC(=O)c2ccccc2C(F)(F)F)c1", "note": "[flutolanil]", "values": [{"measurement": "pest or weed control at 100 g/ha", "setting": "[2]", "result": 0, "unit": "%"}, {"measurement": "Kill in % after 5d", "setting": "[1]", "result": 0, "unit": "%"}]}, {"molecule": "OC(Cc1ccccc1Cl)(Cn1nc[nH]c1=S)C1(Cl)CC1", "note": "(centres unmarked) [prothioconazole]", "values": [{"measurement": "pest or weed control at 100 g/ha", "setting": "[2]", "result": 0, "unit": "%"}]}, {"molecule": "O=C(NCCc1ncc(C(F)(F)F)cc1Cl)c1ccccc1C(F)(F)F", "note": "[fluopyram]", "values": [{"measurement": "Kill in % after 2d", "setting": "[3]; after 2 d", "result": 0, "unit": "%"}, {"measurement": "Kill in % after 2d", "setting": "[2]; 100 g/ha, applied individually, after 2 d", "result": 0, "unit": "%"}]}, {"molecule": "Cn1cc(C(=O)Nc2ccccc2C2CC2C2CC2)c(C(F)F)n1", "note": "(centres unmarked) [sedaxane]", "values": [{"measurement": "Kill in % after 5d", "setting": "[2]; 100 g/ha, applied individually", "result": 0, "unit": "%"}]}, {"molecule": "Cc1nn(C)c(F)c1C(=O)Nc1ccccc1C(C)CC(C)C", "note": "(centres unmarked) [penflufen]", "values": [{"measurement": "Kill in % after 2d", "setting": "[5]", "result": 0, "unit": "%"}, {"measurement": "Kill in % after 5d", "setting": "[2]; 100 g/ha, applied individually", "result": 0, "unit": "%"}]}, {"molecule": "CSC1=N[C@@](C)(c2ccccc2)C(=O)N1Nc1ccccc1", "note": "[fenamidone]", "values": [{"measurement": "pest or weed control at 100 g/ha", "setting": "[2]", "result": 0, "unit": "%"}]}, {"molecule": "CO/C=C(/C(=O)OC)c1ccccc1Oc1cc(Oc2ccccc2C#N)ncn1", "note": "[azoxystrobin]", "values": [{"measurement": "Kill in % after 5d", "setting": "[2]; 100 g/ha, applied individually", "result": 0, "unit": "%"}, {"measurement": "Kill in % after 1d", "setting": "[1]", "result": 0, "unit": "%"}]}, {"molecule": "O=C(NCc1ncc(C(F)(F)F)cc1Cl)c1c(Cl)cccc1Cl", "note": "[fluopicolide]", "values": [{"measurement": "Kill in % after 5d", "setting": "[2]; 100 g/ha, applied individually", "result": 0, "unit": "%"}]}, {"molecule": "CON=C(C(=O)OC)c1ccccc1CON=C(C)c1cccc(C(F)(F)F)c1", "note": "[trifloxystrobin]", "values": [{"measurement": "pest or weed control at 100 g/ha", "setting": "[2]", "result": 0, "unit": "%"}]}, {"molecule": "N#Cc1ccccc1NC(=O)c1snc(Cl)c1Cl", "note": "[isotianil]", "values": [{"measurement": "Kill in % after 5d", "setting": "[2]; 100 g/ha, applied individually", "result": 0, "unit": "%"}]}, {"molecule": "CO/N=C(/C1=NOCCO1)c1ccccc1Oc1ncnc(Oc2ccccc2Cl)c1F", "note": "[fluoxastrobin]", "values": [{"measurement": "pest or weed control at 100 g/ha", "setting": "[2]", "result": 0, "unit": "%"}]}]}
